Calls of active or inactive are those of the source. No rule for the calls is given here.
Test system: Jurkat
Experiment: Inhibition of TNF-alpha-induced necroptosis in FADD-deficient Jurkat T cells
Type: functional, cell-based, Homo sapiens
Design: Activity: concentration or dose not given beside the values
Conditions: for EC50: Jurkat

SMILES | Activity [%] | EC50 (Homo sapiens) [µM] | Activity (Homo sapiens)
N#CCSc1nc2sc3c(c2c(=O)n1-c1cccc(Cl)c1)CCCC3 | 66.9 | 5.1 | 
CCOc1ccc(-n2c(SCC#N)nc3sc4c(c3c2=O)CCC4)cc1 |  |  | inactive
COc1ccccc1-n1c(SCC#N)nc2sc3c(c2c1=O)CCCC3 | 51.2 | 17.8 | 
C#CCSc1nc2sc(C)c(C)c2c(=O)n1-c1ccc2c(c1)OCO2 |  |  | inactive
CSc1cccc(-n2c(SC)nc3sc4c(c3c2=O)CCCC4)c1 |  |  | inactive
COc1ccc(-n2c(SC)nc3sc(C(C)C)c(C)c3c2=O)cc1 |  |  | inactive
N#CCSc1nc2sc3c(c2c(=O)n1-c1ccc(Cl)c(Cl)c1)CCCC3 | 39 | 5.7 | 
COc1ccc(-n2c(SCC#N)nc3sc(C(C)C)c(C)c3c2=O)cc1 |  |  | inactive
CCOc1ccc(-n2c(SC)nc3sc(C)c(C)c3c2=O)cc1 |  |  | inactive
CCSc1nc2sc3c(c2c(=O)n1-c1ccc(OC)cc1)CCCC3 |  |  | inactive
O=c1c2c3c(sc2nc(SCc2ccc([N+](=O)[O-])cc2)n1-c1ccccc1)CCCC3 |  |  | inactive
C#CCSc1nc2sc3c(c2c(=O)n1-c1ccc(OC)cc1)CCCC3 | 80.7 | 6.08 | 
N#CCSc1nc2sc3c(c2c(=O)n1-c1ccc2c(c1)OCO2)CCC3 | 100 | 1.18 | 
CCc1sc2nc(SC)n(-c3ccc(F)cc3)c(=O)c2c1C |  |  | inactive
COc1ccc(-n2c(SCC(=O)O)nc3sc4c(c3c2=O)CCCC4)cc1 |  |  | inactive
COc1ccc(-n2c(SCC#N)nc3sc(C)cc3c2=O)cc1 |  |  | inactive
C#CCSc1nc2sc3c(c2c(=O)n1-c1ccc(OC)cc1)CCC3 | 63.4 | 2.49 | 
CSc1nc2sc3c(c2c(=O)n1-c1ccc(C)c(C)c1)CCC3 |  |  | inactive
N#CCSc1nc2sc3c(c2c(=O)n1-c1ccc(F)cc1)CCC3 | 88.7 | 0.89 | 
CSc1nc2sc3c(c2c(=O)n1-c1ccc(OC(F)(F)F)cc1)CCC3 |  |  | inactive
CCc1c(C)sc2nc(SCCO)n(-c3ccc4c(c3)OCO4)c(=O)c12 |  |  | inactive
N#CCSc1nc2sc3ccccc3c2c(=O)n1-c1ccc(F)cc1 |  | 3.06 | 
CCCc1sc2nc(SCCO)n(-c3ccc(OC)cc3)c(=O)c2c1C |  |  | inactive
COc1ccc(-n2c(SCC#N)nc3scc(C)c3c2=O)cc1 |  |  | inactive
COc1ccc(-n2c(SC[N+](=O)[O-])nc3sc4c(c3c2=O)CCC4)cc1 |  |  | inactive

SMILES | Activity [%] | EC50 (Homo sapiens) [µM] | Activity (Homo sapiens)
Cc1sc2nc(SCC#N)n(-c3ccc(OC(F)(F)F)cc3)c(=O)c2c1C | 63 | 3.7 | 
CCc1c(C)sc2nc(SCC#N)n(-c3ccc(OC)cc3)c(=O)c12 | 100 | 1.08 | 
COc1ccc(-n2c(SCCC#N)nc3sc4c(c3c2=O)CCCC4)cc1 | 70 | 5.28 | 
COc1ccc(-n2c(SCc3ccccc3)nc3sc4c(c3c2=O)CCCC4)cc1 |  |  | inactive
COc1ccc(-n2c(SCC#N)nc3sc4c(c3c2=O)CCCC4)cc1OC | 57 | 5.7 | 
C#CCSc1nc2sc(CCC)c(C)c2c(=O)n1-c1ccc(OC)cc1 |  |  | inactive
CSc1nc2sc3ccccc3c2c(=O)n1-c1ccc2c(c1)OCO2 |  |  | inactive
COc1ccc(-n2c(SC)nc3sc4c(c3c2=O)CCC4)cc1 | 97 | 0.24 | 
Cc1sc2nc(SCC#N)n(-c3ccc(F)cc3)c(=O)c2c1C | 87.6 | 4.43 | 
COc1ccc(CSc2nc3sc4c(c3c(=O)n2-c2ccc(OC)cc2)CCCC4)cc1 |  |  | inactive
COc1ccc(-n2c(SC)nc3scc(C)c3c2=O)cc1 |  |  | inactive
CCOc1ccc(-n2c(SCC#N)nc3sc(C)c(C)c3c2=O)cc1 | 97 | 7.77 | 
C#CCSc1nc2sc3c(c2c(=O)n1-c1ccc(OC)cc1)CCCCC3 |  |  | inactive
COc1ccc(-n2c(SCC#N)nc3sc4c(c3c2=O)CCCC4)c(OC)c1 |  |  | inactive
COc1ccc(-n2c(SC[N+](=O)[O-])nc3sc4c(c3c2=O)CCCC4)cc1 |  |  | inactive
N#CCSc1nc2sc3ccccc3c2c(=O)n1-c1ccc2c(c1)OCCO2 | 100 | 0.15 | 
CCCCCCCCCCCCCCc1sc2nc(SC)n(-c3ccc(OC)cc3)c(=O)c2c1C |  |  | inactive
CCCC(=O)Sc1nc2sc3c(c2c(=O)n1-c1ccc(OC)cc1)CCCC3 |  |  | inactive
CSc1nc2sc3c(c2c(=O)n1-c1ccc(F)cc1)CCC3 | 95 | 3 | 
COc1ccc(-n2c(SC)nc3sc4c(c3c2=O)CN(C(C)C)CC4)cc1 |  |  | inactive
CSc1nc2sc3c(c2c(=O)n1-c1ccc(C)c(C)c1)CC(C)CC3 (centres undefined) |  |  | inactive
CCOc1ccc(-n2c(SC)nc3sc4ccccc4c3c2=O)cc1 |  |  | inactive
COc1ccc(-n2c(SCC(C)=O)nc3sc4c(c3c2=O)CCC4)cc1 |  |  | inactive
COc1ccc(-n2c([S+](C)[O-])nc3sc4c(c3c2=O)CCCC4)cc1 (centres undefined) |  |  | inactive
Cc1ccc(-n2c(SCC#N)nc3sc4c(c3c2=O)CCC4)cc1C |  |  | inactive

SMILES | Activity [%] | EC50 (Homo sapiens) [µM] | Activity (Homo sapiens)
CCN1CCc2sc3nc(SC)n(-c4ccc(OC)cc4)c(=O)c3c2C1 |  |  | inactive
CSc1nc2sc(C)c(C)c2c(=O)n1-c1ccc(F)cc1 | 69.2 | 2.6 | 
COc1ccc(-n2c(SCC#N)nc3sc4c(c3c2=O)CN(C(C)C)CC4)cc1 |  |  | inactive
N#CCSc1nc2sc3c(c2c(=O)n1-c1ccc2c(c1)OCCO2)CCC3 | 100 | 0.25 | 
CN(C)c1ccc(-n2c(SCC#N)nc3sc4ccccc4c3c2=O)cc1 |  |  | inactive
CCCCCCSc1nc2sc3c(c2c(=O)n1-c1ccc(OC)cc1)CCCC3 |  |  | inactive
Cc1sc2nc(SCC#N)n(-c3ccc(OCc4ccccc4)cc3)c(=O)c2c1C |  |  | inactive
CCCCSc1nc2sc3c(c2c(=O)n1-c1ccc(OC)cc1)CCC3 |  |  | inactive
CCCCCCCCCCCCCCc1sc2nc(SCC#N)n(-c3ccc(OC)cc3)c(=O)c2c1C |  |  | inactive
COc1ccc(-n2c(SCc3ccc([N+](=O)[O-])cc3)nc3sc4c(c3c2=O)CCCC4)cc1 |  |  | inactive
C=CCSc1nc2sc3c(c2c(=O)n1-c1ccc(OC)cc1)CCCC3 |  |  | inactive
CCSc1nc2sc3c(c2c(=O)n1-c1ccc(OC)cc1)CCC3 |  |  | inactive
Cc1ccc(-n2c(SCC#N)nc3sc4c(c3c2=O)CCCC4)cc1C | 45 | 16.7 | 
COc1ccc(-n2c(SCC#N)nc3sc4ccccc4c3c2=O)cc1 | 83.3 | 0.18 | 
N#CCSc1nc2sc3c(c2c(=O)n1-c1ccc2c(c1)OCO2)CCCC3 | 100 | 0.89 | 
CCOc1ccc(-n2c(SCC#N)nc3sc4ccccc4c3c2=O)cc1 |  |  | inactive
CSc1nc2sc3c(c2c(=O)n1-c1ccc(Br)cc1)CCCC3 |  |  | inactive
COc1ccc(-n2c(SCC#N)nc3sc4c(c3c2=O)CC(C)CC4)cc1 (centres undefined) |  |  | inactive
COc1ccc(-n2c(SCC#N)nc3sc4c(c3c2=O)CCCC4)cc1 | 100 | 0.24 | 
N#CCSc1nc2sc3c(c2c(=O)n1-c1ccc(Cl)cc1)CCCC3 | 55 | 8.5 | 
CCSc1nc2sc3c(c2c(=O)n1-c1ccc(OC)cc1)CCCCC3 |  |  | inactive
C#CCSc1nc2sc(CC)c(C)c2c(=O)n1-c1ccc2c(c1)OCO2 |  |  | inactive
CCSc1nc2sc3c(c2c(=O)n1-c1ccccc1)CCCCC3 |  |  | inactive
N#CCSc1nc2sccc2c(=O)n1-c1ccccc1 |  |  | inactive
COc1ccc(-n2c(SCc3ccc(C)cc3)nc3sc4c(c3c2=O)CCCC4)cc1 |  |  | inactive

SMILES | Activity [%] | EC50 (Homo sapiens) [µM] | Activity (Homo sapiens)
N#CCSc1nc2sc3c(c2c(=O)n1-c1ccc(F)c(F)c1)CCCC3 |  |  | inactive
COc1ccc(-n2c(SC)nc3sc4c(c3c2=O)CCCC4)cc1 | 71 | 0.24 | 
CCc1c(C)sc2nc(SCC#N)n(-c3ccc4c(c3)OCO4)c(=O)c12 | 100 | 1.9 | 
COc1ccc(-n2c(SC(=O)c3ccccc3)nc3sc4c(c3c2=O)CCCC4)cc1 |  |  | inactive
COc1ccc(-n2c(SC)nc3sc4c(c3c2=O)CCCCC4)cc1 |  |  | inactive
CCc1sc2nc(SCCO)n(-c3ccc(OC)cc3)c(=O)c2c1C |  |  | inactive
Cc1ccccc1-n1c(SCC#N)nc2sc3c(c2c1=O)CCCC3 |  |  | inactive
CSc1nc2sc3c(c2c(=O)n1-c1ccc(F)cc1)CCCC3 | 61.2 | 1.57 | 
N#CCSc1nc2sc3ccccc3c2c(=O)n1-c1ccc(OC(F)(F)F)cc1 |  |  | inactive
N#CCSc1nc2sc3c(c2c(=O)n1-c1ccc(Br)cc1)CCCC3 |  |  | inactive
COc1ccc(-n2c(SCC#N)nc3sc(C)c(C)c3c2=O)cc1 | 100 | 0.45 | 
Cc1ccc(-n2c(SCC#N)nc3sc(C)c(C)c3c2=O)cc1C | 90.7 | 2.79 | 
N#CCSc1nc2sc3c(c2c(=O)n1-c1ccc(OC(F)(F)F)cc1)CCC3 | 70 | 3.7 | 
CSc1nc2sc(C)c(C)c2c(=O)n1-c1ccc2c(c1)OCO2 | 67 | 1.11 | 
CCN1CCc2sc3nc(SCC#N)n(-c4ccc(OC)cc4)c(=O)c3c2C1 |  |  | inactive
CSc1nc2sc3c(c2c(=O)n1-c1ccc(C)c(C)c1)CCCC3 | 38 | 16.7 | 
N#CCSc1nc2sc3c(c2c(=O)n1-c1ccc(F)cc1)CCCCC3 |  |  | inactive
COc1cccc(-n2c(SCC#N)nc3sc4c(c3c2=O)CCCC4)c1 | 87.7 | 1.46 | 
O=c1c2c3c(sc2nc(SCc2ccccc2)n1-c1ccccc1)CCCC3 |  |  | inactive
COc1ccc(-n2c(SCc3ccc([N+](=O)[O-])cc3)nc3sc4c(c3c2=O)CCC4)cc1 |  |  | inactive
C=CCSc1nc2sc3c(c2c(=O)n1-c1ccccc1)CCCC3 |  |  | inactive
CSc1nc2sc3c(c2c(=O)n1-c1ccc(OC(F)(F)F)cc1)CCCC3 |  |  | inactive

— ChEMBL document CHEMBL1139128, “Structure-activity relationship analysis of a novel necroptosis inhibitor, Necrostatin-5” (Bioorg Med Chem Lett, 2007)
